Reference: the supplement of paper PMC11061612

Tests used:
Experiment in all cases: combination Emax (second highest fraction inhibited in the dose matrix, 72 h); higher = more inhibition; extreme values may be limits of the assay
[1] = system: SW620 (Colorectal Carcinoma)
Summary of the method: (§1)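 Cell lines in DMEM/F12 or RPMI with 10% FBS were plated in 1536-well plates, held 24 hours at 37°C, 5% CO2, then given two-drug dose matrices for 72 hours (DMSO typically 0.2%). Viability was read by CellTiter-Glo 2.0 luminescence and scaled as inhibition from 0 (vehicle wells) to 1 (blank wells). Combination Emax is the second-highest inhibition in the matrix; Bliss excess is observed combination effect minus expected EA + EB − EA·EB, EA and EB being single-agent effects.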

[2] = system: NB13 (Neuroblastoma)
Summary of the method: as §1

[3] = system: PEO1 (Ovarian Carcinoma)
Summary of the method: as §1

[4] = system: LU-165 (Small Cell Lung Carcinoma)
Summary of the method: as §1

[5] = system: HCC1395 (Breast Carcinoma)
Summary of the method: as §1

[6] = system: 769-P (Kidney Carcinoma)
Summary of the method: as §1

[7] = system: NCI-H441 (Lung Adenocarcinoma)
Summary of the method: as §1

[8] = system: MDA-MB-436 (Breast Carcinoma)
Summary of the method: as §1

[9] = system: UACC-812 (Breast Carcinoma)
Summary of the method: as §1

[10] = system: KP-N-YN (Neuroblastoma)
Summary of the method: as §1

[11] = system: EW-7 (Ewing's Sarcoma)
Summary of the method: as §1

[12] = system: JHU-022 (Oral Cavity Carcinoma)
Summary of the method: as §1

[13] = system: WM1552C (Melanoma)
Summary of the method: as §1

[14] = system: JHH-2 (Hepatocellular Carcinoma)
Summary of the method: as §1

[15] = system: LS-411N (Colorectal Carcinoma)
Summary of the method: as §1

[16] = system: DMS-53 (Small Cell Lung Carcinoma)
Summary of the method: as §1

[17] = system: HT55 (Colorectal Carcinoma)
Summary of the method: as §1

[18] = system: GCT (Other Solid Carcinomas)
Summary of the method: as §1

[19] = system: A253 (Head and Neck Carcinoma)
Summary of the method: as §1

[20] = system: NCI-H716 (Colorectal Carcinoma)
Summary of the method: as §1

| Compound | combination Emax [1] | combination Emax [2] | combination Emax [3] | combination Emax [4] | combination Emax [5] | combination Emax [6] | combination Emax [7] | combination Emax [8] | combination Emax [9] | combination Emax [10] | combination Emax [11] | combination Emax [12] | combination Emax [13] | combination Emax [14] | combination Emax [15] | combination Emax [16] | combination Emax [17] | combination Emax [18] | combination Emax [19] | combination Emax [20] |
| --- | --- | --- | --- | --- | --- | --- | --- | --- | --- | --- | --- | --- | --- | --- | --- | --- | --- | --- | --- | --- |
| CC1(C)CCC(CN2CCN(c3ccc(C(=O)NS(=O)(=O)c4ccc(NCC5CCOCC5)c([N+](=O)[O-])c4)c(Oc4cnc5[nH]ccc5c4)c3)CC2)=C(c2ccc(Cl)cc2)C1 [Venetoclax] + CS(=O)(=O)CCNCc1ccc(-c2ccc3ncnc(Nc4ccc(OCc5cccc(F)c5)c(Cl)c4)c3c2)o1 [Lapatinib] (first compound max 1 µM, 7x7, partner max 10 µM) | 0.184 | 0.43 | 0.287 | 0.305 | 0.826 | 0.909 | 0.165 | 0.227 | 0.471 | 0.57 | 0.656 | 0.631 | 0.187 | 0.395 | – | – | – | – | – | – |
| C[C@@H](Oc1cc(-c2cnn(C3CCNCC3)c2)cnc1N)c1c(Cl)ccc(F)c1Cl [Crizotinib] + CC1=C(C(=CC=C1)Cl)NC(=O)C2=CN=C(S2)NC3=CC(=NC(=N3)C)N4CCN(CC4)CCO [Dasatinib] (first compound max 10 µM, 7x7, partner max 2 µM) | 0.867 | 0.801 | 0.532 | 0.469 | 0.88 | 0.961 | 0.63 | 0.3 | 0.181 | 0.71 | 0.945 | 0.648 | 0.959 | 0.883 | – | – | – | – | – | – |
| CS(=O)(=O)CCNCc1ccc(-c2ccc3ncnc(Nc4ccc(OCc5cccc(F)c5)c(Cl)c4)c3c2)o1 [Lapatinib] + Cn1cnc2c(F)c(Nc3ccc(Br)cc3Cl)c(C(=O)NOCCO)cc21 [Selumetinib] (first compound max 10 µM, 7x7, partner max 10 µM) | 0.656 | 0.521 | 0.52 | 0.24 | 0.846 | 0.945 | 0.32 | 0.352 | 0.5 | 0.409 | 0.731 | 0.702 | 0.444 | 0.565 | – | – | – | – | – | – |
| O=C(c1cc(Cc2n[nH]c(=O)c3ccccc23)ccc1F)N1CCN(C(=O)C2CC2)CC1 [Olaparib] + CN(CC[C@H](CSC1=CC=CC=C1)NC2=C(C=C(C=C2)S(=O)(=O)NC(=O)C3=CC=C(C=C3)N4CCC(CC4)[C@H](C5=CC=CC=C5C6=CC=C(C=C6)Cl)O)S(=O)(=O)C(F)(F)F)CCO [AZD4320] (first compound max 10 µM, 7x7, partner max 1 µM) | 0.329 | – | 0.242 | 0.473 | 0.407 | 0.678 | 0.213 | 0.308 | 0.251 | 0.968 | 0.944 | 0.163 | 0.484 | 0.171 | – | – | – | – | – | – |
| CS(=O)(=O)CCNCc1ccc(-c2ccc3ncnc(Nc4ccc(OCc5cccc(F)c5)c(Cl)c4)c3c2)o1 [Lapatinib] + NC1(c2ccc(-c3nc4ccn5c(=O)[nH]nc5c4cc3-c3ccccc3)cc2)CCC1 [MK-2206] (first compound max 10 µM, 7x7, partner max 10 µM) | 0.889 | 0.952 | 0.348 | 0.453 | 0.969 | 0.978 | 0.473 | 0.461 | – | 0.922 | 0.965 | 0.663 | 0.767 | 0.9 | 0.295 | 0.544 | – | – | – | – |
| C=CCn1c(=O)c2cnc(Nc3ccc(N4CCN(C)CC4)cc3)nc2n1-c1cccc(C(C)(C)O)n1 [AZD1775] + C1CN(CCC1(C(=O)N[C@@H](CCO)C2=CC=C(C=C2)Cl)N)C3=NC=NC4=C3C=CN4 [Capivasertib] (first compound max 3 µM, partner max 3 µM) | 0.8 | – | 0.773 | 0.536 | 0.777 | 0.665 | 0.454 | 0.41 | 0.466 | – | 0.896 | 0.71 | 0.719 | 0.625 | 0.878 | 0.619 | 0.831 | 0.623 | 0.848 | 0.727 |
| O=C(c1cc(Cc2n[nH]c(=O)c3ccccc23)ccc1F)N1CCN(C(=O)C2CC2)CC1 [Olaparib] + COc1nnc2ccc(N3CCC(c4ccc(OCCN5CCN(C)C(=O)[C@H]5C)cc4)CC3)nn12 [AZD5153] (first compound max 10 µM, 7x7, partner max 1 µM) | 0.447 | – | 0.361 | 0.373 | 0.426 | 0.709 | 0.353 | 0.316 | 0.376 | 0.521 | 0.746 | 0.35 | 0.376 | 0.314 | – | – | – | – | – | – |
